According to patent publication US20190282600A1, “COMBINATION THERAPIES TARGETING TERT DEPENDENCY FOR CANCER THERAPY” (The Wistar Institute of Anatomy and Biology, priority 2018, published 2019):

Experiments:
[1] = system: NRAS mutant melanoma cells; assay: Telomere dysfunction-induced foci (TIF) assay, IF-FISH; type: cell-based, Human; settings: WM3000 cells transduced with TERT shRNA, NAC 1 mM for 7 days
Protocol: NRAS mutant melanoma cells WM3000 were transduced with TERT shRNA and treated with NAC (mM) for 7 days. […] Representative images are shown. (scale bar=10 μm). Quantification of TIF positive cells is plotted in FIG. 13b. Cells were scored as TIF positive when three or more g-H2AX foci (green) were co-localizing with telomere foci (red). Data represent average of thirteen fields imaged +/−SD.
NRAS^mut melanoma cells were treated with 6-thio-dG for 6, 12 or 18 days. As presented in FIG. 15a, relative cell number was assessed by Crystal Violet assay and calculated relative to DMSO-treated cells. Data represent average of three independent experiments +/−SD. […] NRAS^mut cells were treated with 6-thio-dG for 7 days and telomere induced foci (TIF) was determined by indirect immunofluorescence combined with fluorescence in situ hybridization (FISH) (FIG. 15c). […] Quantification of TIF assay is plotted in FIG. 15d. Cells were scored as TIF positive when four or more γ-H2AX foci (green, center row of FIG. 15c labelled as γH2AX) were co-localizing with telomere foci (red, top row of FIG. 15c labelled as Telomeres). […] P values were calculated by unpaired Student's t-test.
For TIF analysis, indirect immunofluorescence (IF) combined with fluorescence in situ hybridization (FISH) was performed as previously described with some modifications. […] TIF were quantified from at least three independent experiments.

[2] = system: NRAS mutant melanoma spheroids; assay: 3D collagen-embedded tumor spheroids, Live/Dead staining; type: cell-based, Human; settings: 6-thio-dG 5 μM and Ganetespib 5 μM, day 7
Protocol: FIGS. 6a to 6e provide results showing that combining 6-thio-dG and Gamitrinib inhibits the growth of 3D melanoma spheroids and NRAS-mutant xenograft tumors. […] 4a to 4e. On day 7, spheroids were stained with Calcein AM (live cells; green) and EtBr (dead cells; red) and imaged using an inverted microscope (4X; scale bar=250 μm). […] P values were calculated using unpaired Student's t-test. *p<0.05, ** p<0.01, ***p<0.005, when comparing vehicle control vs. combination treatment groups. As presented in FIG. 6d, treatment was discontinued after 14 days, and mice were followed until tumor volume reached a preset volume (1500 mm^3). Kaplan Meier survival curves of mice treated for 14 days. p-values were calculated by Mantel-Cox log-rank test; *p<0.05, **p<0.01, ***p<0.005. Animal weight (grams) before treatment (Start of TX) and at the end of the study (End of TX) was assessed, recorded for every mouse enrolled in the study and plotted in FIG. 6e. Mean and SEM are depicted (n=7 mice/treatment group). Statistical significance was assessed by unpaired Student's t-test.
In FIG. 17a, NRAS^mut melanoma cells were treated with 6-thio-dG (1 μM) for 7 days total. At day 5, culture medium was replaced and cells were treated with 1 μM 6-thiodG plus 1 mM Phenformin for two more days. Percent cell death was determined by flow cytometry following staining of cells with Annexin V and Propidium iodide. […]

[3] = system: NRAS mutant melanoma cells; assay: Cell death by flow cytometry (PSVue or Annexin V/PI); type: cell-based, Human; settings: cells transduced with TERT shRNA, 7 days post infection 5 μM Gamitrinib for 48 h
Protocol: FIGS. 2a to 2c show NRAS^mut melanoma cells (FIG. 2a), BRAF-V600E/NRAS mutant cells derived from melanoma patients resistant to BRAF/MEK inhibitors (FIG. 2b), or non-transformed melanocytes and fibroblasts (FIG. 2c) were treated with 6-thio-dG for 7 days. Cell viability was measured by Alamar Blue assay and calculated relative to DMSO-treated cells. […] Cell death was assessed by PSVUe staining. Percent of apoptotic cells is shown. […] Mean TRF length expressed as kilobase pairs is indicated at the bottom. […] FIG. 2g provides a bar graph showing that DNA damage was assessed by γH2AX staining. Data represent average from three independent experiments ±SEM. *p<0.05; **p<0.01; ***p<0.005 in unpaired Student's t-test. As presented in FIG. 2h, mice bearing established WM3000 or M93-047 NRAS^mut tumors were treated with vehicle control or 6-thio-dG (2.5 mg/kg i.p; q.d). Tumor volume was measured and average tumor volume (n=4) ±SEM was plotted vs. time.
FIGS. 3a to 3g provides graphs showing that telomere dysfunction enhances oxidative stress leading to upregulation of an antioxidant program. […] Mitochondrial superoxide production was measured by MitoSox Red fluorescence (FIGS. 3c, and 3d) and expressed as fluorescence relative to vector or DMSO controls. […] FIG. 3f provides a bar graph showing that SOD2 was silenced using shRNA. Transduced M93-047 cells were treated with DMSO or 1 μM of 6-thio-dG and cell death was assessed by Annexin V/PI straining. As presented in FIG. 3g, M93-047 cells were transduced with a SOD2 lentiviral construct or empty vector control (pLX304). Transduced cells were treated with increasing doses (1, 2.5 and 5 μM) of 6-thio-dG for 7 days and cell death was assessed. Data represent average from three independent experiments ±SEM. *p<0.05; **p<0.01; ***p<0.005 in unpaired Student's t-test.
FIGS. 4a to 4e provides bar graphs showing that induction of telomere and mitochondrial dysfunction triggers cell death in NRAS mutant melanoma. […] Cell death was assessed by Annexin V and PI staining. […] Cells were stained with Annexin V and PI and percent cell death was determined by flow cytometry. […] P values were calculated using unpaired Student's t-test; * p<0.05; *** p<0.005.
As presented in FIG. 16a, SOD2 was silenced using shRNA. Transduced WM3000 cells were treated with DMSO or 1 μM of 6-thio-dG and cell death was assessed by Annexin V/PI straining. […] Transduced cells were treated with increasing doses (1, 2.5 and 5 μM) of 6-thio-dG for 10 days and cell death was assessed. […]
In FIG. 17a, NRAS^mut melanoma cells were treated with 6-thio-dG (1 μM) for 7 days total. […] Percent cell death was determined by flow cytometry following staining of cells with Annexin V and Propidium iodide. […]

[4] = system: BRAF mutant melanoma cells; assay: Cell death by Annexin V/PI flow cytometry; type: cell-based, Human; settings: 1 μM 6-thio-dG, 5 μM Gam, single agent or in combination
Protocol: (§1) FIGS. 5a to 5e provide bar graphs showing that combination treatment with 6-Thio-dG and Gamitrinib (Gam) triggers death selectively in NRAS mutant tumor cells. NRAS-WT/BRAF-WT melanoma cells (FIG. 5a), NRAS-WT/BRAF-mut melanoma cells (FIG. 5b), NRAS mutant neuroblastoma cells (FIG. 5c), NRAS-WT/KRAS-mutant colon cancer cells (FIG. 5d), and NRAS-WT/KRAS-mutant lung cancer cells were treated with 1 μM 6-thio-dG for 5 days (FIG. 5e). At day 5, culture medium was replaced and cells treated with 1 μM 6-thio-dG plus 5 μM Gam for two more days. Cells were stained with Annexin V and PI and percent cell death was determined by FACS. Data represent average of three independent experiments +/−SEM; p values were calculated using un-paired Student's t-test; *p<0.05; **p<0.001.
(§2) Cells were seeded in 96-well plates and treated with drugs. After 6 days, cell viability was assessed following 6h incubation with […] Alamar Blue (ThermoFisherScientific, Philadelphia, Pa.) by measuring fluorescence using an EnVision Xcite Multilabel plate reader (Perkin Elmer, Waltham, Mass.). Cell death was determined by flow cytometry using PSVue-643 (Molecular Targeting Technologies) or Annexin V (640919, Biolegend, San Diego, Calif.) and Propidium Iodide (Sigma) staining. Samples were analyzed using a BD LSRII flow cytometer (BD Biosciences, San Jose, Calif.).

[5] = system: NRAS-WT/BRAF-WT melanoma cells; assay: Cell death by Annexin V/PI flow cytometry; type: cell-based, Human; settings: 1 μM 6-thio-dG, 5 μM Gam, single agents or in combination
Protocol: as §1, §2

KRAS mutant A549 cells = assay: Cell death by Annexin V/PI flow cytometry; type: cell-based; settings: 1 μM 6-thio-dG, 5 μM Gam
Protocol: as §1, §2

KRAS mutant HCT116 cells = assay: Cell death by Annexin V/PI flow cytometry; type: cell-based; settings: 1 μM 6-thio-dG, 5 μM Gam
Protocol: as §1, §2

[6] = system: NRAS mutant SKNAS neuroblastoma cells; assay: Cell death by Annexin V/PI flow cytometry; type: cell-based; settings: 1 μM 6-thio-dG, 5 μM Gam, single agents or in combination
Protocol: as §1, §2

SOD2 = settings: Siegelin et al., 2011; cited from earlier work
[7] = system: prostate, breast and lung cancer, BRAF-V600E-mutant melanoma; settings: Chae et al., 2012; cited from earlier work
NRAS mutant cells = settings: Chae et al., 2012; cited from earlier work
[8] = literature; cited from earlier work
[9] = literature; cited from earlier work; remark: listed apart in the source

Compound: CC(=O)N[C@@H](CS)C(=O)O [NAC, N-acetyl-L-cysteine]
- number of TIF [1]: attenuated the number of TIF

Compound: CC(C)c1cc(-c2n[nH]c(=O)n2-c2ccc3c(ccn3C)c2)c(O)cc1O [ganetespib]
- enhancement of 6-Thio-dG efficacy in spheroids [2]: did not enhance the efficacy of 6-Thio-dG

Compound: Gamitrinib
- cell death (Annexin V/PI) [3]: enhanced the cytotoxic effects of Gamitrinib
- cell death [4]: 75-80%
- cell death [5]: did not induce cell death
- cell death (KRAS mutant A549 cells): did not induce substantial death
- cell death (KRAS mutant HCT116 cells): did not induce substantial death
- cell death [6]: triggered significant death
- SOD2 levels (SOD2): downregulate SOD2 levels
- mitochondrial membrane potential [7]: rapid and complete loss of mitochondrial membrane potential
- anti-cancer activity as a single agent (NRAS mutant cells): limited activity

Compound: imetelstat
- efficacy [8]: efficacy
- activity [9]: limited activity
